# Reference: patent US11572590B2, “Methods for evaluating tumor cell spheroids using 3D microfluidic cell culture device” (Dana-Farber Cancer Institute, Inc., priority 2017, dated 2023)
# Like-named read-outs stand apart in the source and are kept apart here.
# Columns and labels:
# [1] = biological target: off-target kinases (Homo sapiens, UniProt P12931); test: SelectScreen Kinase Profiling, single point inhibition and IC50 for off-target kinases; format: biochemical; set-up: other: SRC N1; 1000 μM; ATP Km app; ZLYTE; details: SRC N1, ATP Km app, ZLYTE
# Chain of off-target kinases (Homo sapiens, UniProt P12931) (P12931 1-542 isoform P12931-2): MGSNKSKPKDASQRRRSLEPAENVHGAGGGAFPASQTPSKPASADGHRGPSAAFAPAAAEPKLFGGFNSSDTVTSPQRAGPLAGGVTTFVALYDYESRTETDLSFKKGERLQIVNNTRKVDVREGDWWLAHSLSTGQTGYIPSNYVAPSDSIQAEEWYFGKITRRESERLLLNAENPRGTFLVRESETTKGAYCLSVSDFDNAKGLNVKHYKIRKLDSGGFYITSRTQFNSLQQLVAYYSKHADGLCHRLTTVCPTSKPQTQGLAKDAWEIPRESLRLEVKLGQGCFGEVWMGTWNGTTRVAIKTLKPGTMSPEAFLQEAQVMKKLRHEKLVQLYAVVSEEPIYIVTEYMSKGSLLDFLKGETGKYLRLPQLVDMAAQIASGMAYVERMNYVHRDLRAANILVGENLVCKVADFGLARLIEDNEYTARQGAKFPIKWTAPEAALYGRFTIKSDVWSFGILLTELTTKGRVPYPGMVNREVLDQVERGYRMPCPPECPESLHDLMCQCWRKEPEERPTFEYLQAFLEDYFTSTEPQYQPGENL
# Description: (§1) Biochemical single point inhibition and IC50 concentrations for TBK1, IKKε (IKBKE), and off-target kinases were determined at ThermoFisher Scientific using SelectScreen Kinase Profiling Services (Madison, Wis., USA) (Tables S4A and S4B-1-7). To determine cellular potency, the human colorectal cancer carcinoma cell line HCT116 (ATCC, Manassas, Va.) was maintained in T175 flasks in complete RPMI medium; RPMI 1640 supplemented with 10% FBS, 1× Penicillin-Streptomycin solution and 1×MEM (non-essential amino acids). HCT116 cells were grown to 90-95% confluency in T175 flasks containing complete RPMI medium and transfected in bulk using Lipofectamine 2000 (Invitrogen, Carlsbad, Calif.) with 70 μg of ISG54-luciferase reporter plasmid (Elim Biopharmaceuticals Inc., Hayward, Calif.). The reporter plasmid contains a luciferase gene expression cassette under the transcriptional regulation of the promoter of the human interferon stimulated gene 54 (ISG54). Transfection of the cells was allowed to take place for 6 hours, after which the cells were harvested by treatment with 0.25% trypsin EDTA (Corning Inc., Corning, N.Y.). Trypsinized cells were added to 384-well poly-d-lysine treated black clear bottom tissue culture assay plates (Greiner Bio-One GmbH, Kremsmünster, Austria) at a density of 20,000 cells/well in 80 μL of complete RPMI medium and incubated overnight. After 16-18 hours post-transfection, the assay plates were washed with PBS (Corning Inc., Corning, N.Y.), followed by addition of 80 μL/well of serum-free RPMI 1640 medium containing 1× Penicillin-Streptomycin solution, 1×MEM and 350 nL of DMSO or titrations of Compound 1. […] The assay plates were incubated for 5 hours at 37° C., followed by addition of One-Glo luciferase firefly reagent (Promega, Madison, Wis.) at 1:1 volume/well and luminescence was measured in an EnVision Multilabel Plate Reader (PerkinElmer, Santa Clara, Calif.). The EC50 values were calculated from the fit of the dose-response curves to a four-parameter equation. […]
# [2] = system: B16F10 MDOTS; test: Live/dead (AO/PI) imaging of B16F10 MDOTS in 3D microfluidic culture; format: cell-based, murine; details: Cmpd1 (1 μM) + αPD-1, 6 days
# Description: Fresh tumor specimens (murine and human patients) were received in media (DMEM) on ice and minced in a 10 cm dish (on ice) using sterile forceps and scalpel. Minced tumor was resuspended in DMEM ([…], […] sodium pyruvate, 1:100 penicillin-streptomycin) (Corning CellGro, Manassas, Va.) +10% FBS (Gemini Bio-Products, West Sacramento, Calif.), 100 U/mL collagenase type IV (Life Technologies, Carlsbad, Calif.), and 15 mM HEPES (Life Technologies, Carlsbad, Calif.), except for CT26 tumors that were prepared in RPMI. Samples were pelleted and resuspended in 10-20 mL media. Red blood cells were removed from visibly bloody samples using RBC Lysis Buffer (Boston Bio-Products, Ashland, Mass.). […]
# Dual labeling was performed by loading microfluidic device with Nexcelom ViaStain™ AO/PI Staining Solution (Nexcelom, CS2-0106). Following incubation with the dyes (20 minutes at room temperature in the dark), images were captured on a Nikon Eclipse 80i fluorescence microscope equipped with Z-stack (Prior) and CoolSNAP CCD camera (Roper Scientific). […] Live and dead cell quantitation was performed by measuring total cell area of each dye. […]
# [3] = biological target: off-target kinases (Homo sapiens, UniProt P00533, DEL746-750); test: SelectScreen Kinase Profiling, single point inhibition and IC50 for off-target kinases; format: biochemical; set-up: other: EGFR (ErbB1) d746-750; mutant y; 1000 μM; details: EGFR (ErbB1) d746-750, mutant y, LanthaScreen Binding
# Chain of off-target kinases (Homo sapiens, UniProt P00533, DEL746-750) (P00533 with tags, fused parts or gaps DEL746-750): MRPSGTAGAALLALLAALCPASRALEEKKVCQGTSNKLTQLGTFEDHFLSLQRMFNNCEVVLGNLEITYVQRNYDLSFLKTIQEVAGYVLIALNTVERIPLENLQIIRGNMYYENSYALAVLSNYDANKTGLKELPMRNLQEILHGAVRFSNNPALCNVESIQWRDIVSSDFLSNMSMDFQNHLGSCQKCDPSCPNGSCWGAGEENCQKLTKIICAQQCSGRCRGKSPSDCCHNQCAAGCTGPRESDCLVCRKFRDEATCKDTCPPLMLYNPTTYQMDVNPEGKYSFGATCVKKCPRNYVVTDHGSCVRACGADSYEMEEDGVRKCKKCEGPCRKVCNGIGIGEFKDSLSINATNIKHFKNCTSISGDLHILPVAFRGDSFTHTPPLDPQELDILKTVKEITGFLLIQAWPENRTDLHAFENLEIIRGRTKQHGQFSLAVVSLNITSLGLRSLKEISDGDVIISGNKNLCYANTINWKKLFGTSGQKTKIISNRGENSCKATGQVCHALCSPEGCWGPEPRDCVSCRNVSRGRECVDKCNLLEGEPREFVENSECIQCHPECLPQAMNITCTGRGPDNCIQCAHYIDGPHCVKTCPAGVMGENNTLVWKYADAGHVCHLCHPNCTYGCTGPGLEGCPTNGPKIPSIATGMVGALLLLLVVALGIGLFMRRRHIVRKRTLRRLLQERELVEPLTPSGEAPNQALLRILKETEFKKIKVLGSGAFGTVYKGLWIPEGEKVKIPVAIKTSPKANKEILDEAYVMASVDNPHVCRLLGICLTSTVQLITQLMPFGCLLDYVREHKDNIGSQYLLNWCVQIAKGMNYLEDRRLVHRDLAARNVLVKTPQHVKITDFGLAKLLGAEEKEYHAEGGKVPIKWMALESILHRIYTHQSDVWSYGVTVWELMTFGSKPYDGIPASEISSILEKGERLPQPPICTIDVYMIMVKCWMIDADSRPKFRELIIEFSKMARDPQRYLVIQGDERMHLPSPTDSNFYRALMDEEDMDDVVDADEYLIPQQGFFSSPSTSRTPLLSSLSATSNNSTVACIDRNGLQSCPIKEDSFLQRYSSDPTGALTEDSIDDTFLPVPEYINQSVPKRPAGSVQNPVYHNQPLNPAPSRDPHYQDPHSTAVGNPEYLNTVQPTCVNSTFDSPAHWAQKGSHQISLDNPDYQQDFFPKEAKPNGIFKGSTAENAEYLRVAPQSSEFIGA
# Description: as §1, with “(ISG54).” for “(ISG54). Transfection of the cells was allowed to take place for 6 hours, after which the cells were harvested by treatment with 0.25% trypsin EDTA (Corning Inc., Corning, N.Y.). Trypsinized cells were added to 384-well poly-d-lysine treated black clear bottom tissue culture assay plates (Greiner Bio-One GmbH, Kremsmünster, Austria) at a density of 20,000 cells/well in 80 μL of complete RPMI medium and incubated overnight. After 16-18 hours post-transfection, the assay plates were washed with PBS (Corning Inc., Corning, N.Y.), followed by addition of 80 μL/well of serum-free RPMI 1640 medium containing 1× Penicillin-Streptomycin solution, 1×MEM and 350 nL of DMSO or titrations of Compound 1.”
smiles,measurement,setting,value
"N#Cc1cc(-c2ncnc(Nc3ccc(N4CCN(C5COC5)CC4)cc3)n2)ccc1OC1CCOCC1 [Compound 1, 5-(4-((4-(4-(oxetan-3-yl)piperazin-1-yl)phenyl)amino)-1,3,5-triazin-2-yl)-2-((tetrahydro-2H-pyran-4-yl)oxy)benzonitrile]",inhibition,[1]; read-out: % Inhibition 1,54%
same,inhibition,[1]; read-out: % Inhibition 2,60%
same,inhibition,[1]; read-out: % Inhibition Avg,57%
same,sensitization of B16F10 MDOTS to PD-1 blockade (live/dead),[2],could not be sensitized
same,inhibition,[3]; read-out: % Inhibition 1,14%
same,inhibition,[3]; read-out: % Inhibition 2,13%
